The values below come from paper PMC11952846, “The sterol-regulating human ARV1 binds cholesterol and phospholipids through its conserved ARV1 homology domain” (The Journal of Biological Chemistry, 2025).

In general, EC50 refers to the midpoint of the concentration-response curve. Read a low EC50 as an effect from little substance.

Positions count from the first letter of the chain named.

For experiment [1], the target named is T1, GST-Annexin A2 (Homo sapiens, UniProt P07355). The experiment is described as follows: Lipid overlay far western (positive control protein). In kind it is binding. Here is the method:
(§1) Lipid overlays were blocked in TBST-BSA (100 mM Tris–HCl buffer, pH 7.5, 150 mM NaCl, 0.5% Tween 20, 3% bovine serum albumin) for 1 h and subsequently washed eight separate times with TBST for 2 min each. Overlays were incubated with 0.5 μg/ml GST-tagged or 6XHIS-tagged proteins in 3% TBST-BSA buffer containing 0.1% Triton X-100, for 1 h at room temperature and washed as above. Overlays were incubated with either anti-GST or anti-6XHIS monoclonal antibodies at a 1:1000 dilution in TBST-BSA for 1 h at room temperature followed by eight washes in TBST. Overlays were visualized using Immobilon Western Chemiluminescent horseradish peroxidase substrate and protein–lipid interaction was detected using a GE ImageQuant LAS 3000 imager.

Experiment [2] concerns the target T2, 6XHIS-ARV1-N98 C34/C37A (Homo sapiens, UniProt Q9H2C2, C34A/C37A).
T2 construct: Expressing amino-terminal 98 amino acids of ARV1; made in house; host or cells: E. coli BL21 (pET-28a(+))
T2 sequence (Q9H2C2 1-98 C34A/C37A): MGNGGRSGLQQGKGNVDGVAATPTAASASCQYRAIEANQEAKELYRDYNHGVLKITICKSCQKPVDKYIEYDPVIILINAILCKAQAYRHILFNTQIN
Put plainly: Lipid overlay far western, site-directed mutant. The settings on record: compared to the ARV1-N98 protein. In kind it is binding. Here is the method:
as §1

The target in experiment [3] is T3, 6XHIS-ARV1-N98 K84A (Homo sapiens, UniProt Q9H2C2, K84A).
T3 construct: Expressing amino-terminal 98 amino acids of ARV1; made in house; host or cells: E. coli BL21 (pET-28a(+))
T3 sequence (Q9H2C2 1-98 K84A): T2 sequence (Q9H2C2 1-98 C34A/C37A) with A34C, A37C, K84A
The experiment is described as follows: Lipid overlay far western, site-directed mutant. The format is binding. The settings on record: compared to the ARV1-N98 protein. Here is the method:
as §1

Experiment [4] concerns the target T4, 6XHIS-ARV1-N98 K67A (Homo sapiens, UniProt Q9H2C2, K67A).
T4 construct: Expressing amino-terminal 98 amino acids of ARV1; made in house; host or cells: E. coli BL21 (pET-28a(+))
T4 sequence (Q9H2C2 1-98 K67A): T2 sequence (Q9H2C2 1-98 C34A/C37A) with A34C, A37C, K67A
The experiment is described as follows: Lipid overlay far western, site-directed mutant. In kind it is binding. The settings on record: compared to the ARV1-N98 protein. Here is the method:
as §1

Experiment [5] has as its target T5, GST-ARV1-N98 (Homo sapiens, UniProt Q9H2C2).
T5 construct: Expresses amino-terminal 98 amino acids of ARV1; made in house; host or cells: E. coli BL21 (pGEX-4T1)
T5 sequence (Q9H2C2 1-98): T2 sequence (Q9H2C2 1-98 C34A/C37A) with A34C, A37C
The experiment is described as follows: Lipid overlay far western. The format is binding. Here is the method: as §1

The target of experiment [6] is T6, GST-ARV1 (full-length ARV1) (Homo sapiens, UniProt Q9H2C2).
T6 construct: Expresses full length ARV1; made in house; host or cells: E. coli BL21 (pGEX-4T1)
T6 sequence (Q9H2C2 1-271): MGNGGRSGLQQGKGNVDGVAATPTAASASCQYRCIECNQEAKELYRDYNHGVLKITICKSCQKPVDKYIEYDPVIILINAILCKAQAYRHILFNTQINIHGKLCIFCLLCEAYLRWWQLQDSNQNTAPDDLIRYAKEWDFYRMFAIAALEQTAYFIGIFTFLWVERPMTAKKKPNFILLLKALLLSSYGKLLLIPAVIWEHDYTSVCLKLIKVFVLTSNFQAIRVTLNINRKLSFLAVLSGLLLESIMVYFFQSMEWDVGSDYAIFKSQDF
Put plainly: Lipid overlay far western. In kind it is binding. As for the experimental part:
as §1

For experiment [7], the target named is T7, GST-ARV1-N50 (Homo sapiens, UniProt Q9H2C2).
T7 construct: Expresses amino-terminal 50 amino acids of ARV1; made in house; host or cells: E. coli BL21 (pGEX-4T1)
T7 sequence (Q9H2C2 1-50): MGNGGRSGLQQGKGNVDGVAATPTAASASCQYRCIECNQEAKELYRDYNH
Put plainly: Lipid overlay far western, truncation. The format is binding. The settings on record: compared to ARV1-N98 / ARV1-N70. Here is the method: as §1

For experiment [8], the target named is T8, GST-ARV1-N70 (Homo sapiens, UniProt Q9H2C2).
T8 construct: Expresses amino-terminal 70 amino acids of ARV1; made in house; host or cells: E. coli BL21 (pGEX-4T1)
T8 sequence (Q9H2C2 1-70): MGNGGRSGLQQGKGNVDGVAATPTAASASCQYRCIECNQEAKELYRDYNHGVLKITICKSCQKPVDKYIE
The experiment is described as follows: Lipid overlay far western, truncation. In kind it is binding. The settings on record: compared to ARV1-N98. Here is the method:
as §1

Experiment [9] concerns the target T6, GST-ARV1 (full-length ARV1). The experiment is described as follows: Protein-lipid liposome binding assay (ultracentrifugation, Western blot). Here is the method: (§2) Lyophilized lipids were reconstituted in chloroform at 10 mg/ml and stored in glass tubes with Teflon tops at −20 °C until use. One milliliter of 10 mg/ml stock was dried under a stream of nitrogen in a glass tube until a lipid cake/film was formed. The lipid cake was then rehydrated in BLT rehydration buffer (5 mM Tris/HCl, pH 7.4, containing 150 mM NaCl) to a concentration of 1 mg/ml. Lipid suspensions were subjected to three freeze/thaw cycles using a dry ice ethanol/[…] water bath to encapsulate the buffer and improve liposome formation. The suspension and lipid extruder were equilibrated to temperature for 10 min and liposomes were extruded using […] polycarbonate membranes (Avestin). Liposomes were made by mixing stock lipid PL (1 mg/ml) with PC (10 mg/ml).
(§3) Cholesterol composition liposomes were rehydrated with cholesterol rehydration buffer (10 mM Hepes, pH 7.4, containing 150 mM KCl).
(§4) Liposomes were serial diluted in floatation buffer (100 mM NaCl, 2 mM EDTA, pH 5.5) to a final concentration of 0.1 mg/ml. Nine hundred microliters of liposome solution was placed in clear ultracentrifuge tubes and mixed with 100 μl of 0.01 μg/ml of protein. The liposome/protein solution was incubated at room temperature for 1 h with occasional shaking. An initial 100 μl of liposome/protein solution (liposomes) was removed and the remaining 900 μl was centrifuged at 50,000g for 20 min at 4 °C. The pellet was resuspended in 800 μl of fresh floatation buffer, centrifuged as above, and 800 μl of supernatant was removed (wash 1). This was repeated a second time and again 800 μl of supernatant was removed (wash 2). The final pellet was resuspended in 100 μl of floatation buffer plus SDS treatment buffer (pellet). Thirty microliters of each fraction was run on a 15% SDS-PAGE gel and probed with an anti-GST monoclonal antibody at a 1:1500 dilution.

In experiment [10] the target is T9, GST-ARV1-N98 (N-terminal 98 amino acids, AHD) (Homo sapiens, UniProt Q9H2C2).
T9 construct: Expresses amino-terminal 98 amino acids of ARV1; made in house; host or cells: E. coli BL21 (pGEX-4T1)
T9 sequence (Q9H2C2 1-98): T2 sequence (Q9H2C2 1-98 C34A/C37A) with A34C, A37C
Described as above. As for the experimental part:
as §2, §3, §4

Experiment [11] addresses T1, GST-Annexin A2. Put plainly: Protein-lipid liposome binding assay (positive control protein). The settings on record: protein detected in final pellet. Here is the method:
as §2, §4

In experiment [12] the target is T10, 6XHIS-ARV1-N98 (Homo sapiens, UniProt Q9H2C2).
T10 construct: made in house; host or cells: E. coli BL21
T10 sequence (Q9H2C2 1-98): T2 sequence (Q9H2C2 1-98 C34A/C37A) with A34C, A37C
Put plainly: HTRF phospholipid lipid-binding assay. Particulars: biotinylated lipid (Bio-PL) titrated, 0.75 μM protein; lipid labels mean the biotinylated lipids. The text has this:
An HTRF assay was developed for 6XHIS-ARV1-N98-lipid binding. HTRF measures analyte interactions through fluorescence resonance energy transfer technology and time-resolved measurements ([53]). The interaction between two molecules can be quantified through binding each individual molecule involved with a fluorescent label and then analyzing the transfer of energy between the initial donor fluorophore and the secondary acceptor fluorophore. Following excitation of the first fluorophore, transfer of energy can only occur if the molecules bound with the fluorescent tags are within proximity to each other.
Assays were plated in 384-well flat bottom microplates (Greiner Bio, catalog #784075-25). Proteins were diluted using binding buffer (20 mM Hepes buffer, pH 7.2, containing 0.1% BSA, and 0.01% Tween20) to a stock concentration of 0.75 μM, and biotinylated phospholipids were dispensed, dried under nitrogen gas, and resuspended in binding buffer to a stock concentration of 50 μM. The lipid stock solution was diluted by 1:2 for a series of 12 serial dilutions. For the assay, in sequential order, 6 μl of binding buffer was loaded into the plate in triplicate for each dilution of phospholipid. To this, 2 μl of 0.75 μM 6XHIS-ARV1-N98 was added, followed by 2 μl of biotinylated phospholipid. Immediately following each addition loaded into the plate, the plate was centrifuged for 1 min at 1000 rpm to bring the contents to the bottom of the well. Next, detection antibodies were mixed with detection buffer (20 mM Hepes buffer, pH 8.5, containing 0.01% BSA and 200 mM KF). […] Plates were read on a PerkinElmer EnVision Xcite Multilabel plate reader.
Curves were logarithmically transformed and normalized to a common scale before being fit with a nonlinear regression of the agonist against the normalized response. […] For phospholipid competition analysis, IC50; M values were determined using nonlinear regression of the inhibitor against normalized response.

Setting [13] is: lipid-embedded membrane strips, incl. sphingolipid strip.
[14] abbreviates: PIP lipid membrane strip, 100pmol-1.56pmol per spot.
[15] abbreviates: liposomes containing 10% and 20% cholesterol.
[16] abbreviates: liposomes containing 30 to 50% cholesterol.
Setting [17] is: protein detected in final pellet.

T1 sequence (P07355 whole entry): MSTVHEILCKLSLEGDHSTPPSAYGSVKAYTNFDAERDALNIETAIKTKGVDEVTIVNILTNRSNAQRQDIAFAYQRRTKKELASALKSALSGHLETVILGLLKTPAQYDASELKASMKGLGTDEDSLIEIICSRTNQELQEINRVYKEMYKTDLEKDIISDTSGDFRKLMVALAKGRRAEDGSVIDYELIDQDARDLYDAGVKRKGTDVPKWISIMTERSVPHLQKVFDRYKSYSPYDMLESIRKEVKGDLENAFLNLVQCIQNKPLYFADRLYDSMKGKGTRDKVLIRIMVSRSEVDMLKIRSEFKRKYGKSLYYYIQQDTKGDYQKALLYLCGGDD

Consider `CCCCCC(=O)O[C@H](COC(=O)CCCCCNC(=O)CCCC[C@@H]1SC[C@@H]2NC(=O)N[C@@H]21)COP(=O)(O)O[C@@H]1[C@H](O)[C@H](O)[C@@H](OP(=O)(O)O)[C@H](OP(=O)(O)O)[C@H]1O` [PI(4,5)P2, reference compound], for which, in [1] (setting [13]), the lipid-protein interaction result is on record as “interacted”. The results for the “change of lipid-protein interaction” value in [2], in [3] and in experiment [4] were “enhanced interactions”, “increased interactions” and “increased interactions”, respectively.
As for `CCCCCC(=O)O[C@H](COC(=O)CCCCCNC(=O)CCCC[C@@H]1SC[C@@H]2NC(=O)N[C@@H]21)COP(=O)(O)O[C@H]1[C@H](O)[C@@H](OP(=O)(O)O)[C@H](O)[C@@H](O)[C@H]1O` [PI(5)P, reference compound], the lipid-protein interaction result is “interacted” in experiment [5] (setting [14]), “interacted” in [6] (setting [14]) and “strongest interactions” in [1] (setting [14]). Further, the results for the “change of lipid-protein interaction” value in experiment [7] and in experiment [8] were “eliminated” and “reduced interactions”, respectively.
Regarding `CC(C)CCC[C@@H](C)[C@H]1CC[C@H]2[C@@H]3CC=C4C[C@@H](O)CC[C@]4(C)[C@H]3CC[C@]12C` [cholesterol], the lipid-protein interaction entry in [5] (setting [13]) and in experiment [6] (setting [13]) was “not seen” in each case. In addition, the “binding to PC:Chol liposomes” value in experiment [9] (setting [15]) is on record as “bound”; in [9] (setting [16]), “neither ARV1 nor ARV1-N98 associated”; in experiment [10] (setting [15]), “bound”; in experiment [10] (setting [16]), “neither ARV1 nor ARV1-N98 associated”.
With `CCCCCCCC/C=C\CCCCCCCC(=O)OC[C@@H](O)COP(=O)(O)O` [lyso-phosphatidic acid], the lipid-protein interaction entry in [5] (setting [13]) and in experiment [6] (setting [13]) was “not seen” each time.
In the case of `CCCCCCCCCCCCCC[C@@H](O)[C@@H](O)[C@@H](N)CO` [phytosphingosine], the lipid-protein interaction entry in experiment [5] (setting [13]) and in [6] (setting [13]) was “not” each time.
Consider `CCCCCC(=O)O[C@H](COC(=O)CCCCCNC(=O)CCCC[C@@H]1SC[C@@H]2NC(=O)N[C@@H]21)COP(=O)(O)O[C@@H]1[C@H](O)[C@H](OP(=O)(O)O)[C@@H](O)[C@H](O)[C@H]1O` [reference compound], for which the lipid-protein interaction entry in experiment [5] (setting [14]) is “interacted”; in experiment [6] (setting [14]), “interacted”; in [1] (setting [14]), “strongest interactions”. For the same compound, the figures for the “change of lipid-protein interaction” value in [7] and in [8] were “enhanced” and “reduced interactions”, respectively.
On to `CCCCCCCCCCCCC/C=C/[C@@H](O)[C@@H](N)COP(=O)(O)O` [sphingosine-1-phosphate], for which the lipid-protein interaction result in experiment [5] (setting [13]) and in experiment [6] (setting [13]) was “not” in each case.
On to `CCCCCCCCCCCCC/C=C/[C@@H](O)[C@@H](N)CO` [sphingosine], for which the lipid-protein interaction entry in experiment [5] (setting [13]) and in [6] (setting [13]) was “not” each time.
Consider PI(3,4,5)P3, for which the lipid-protein interaction result in experiment [1] (setting [13]) is recorded as “interacted”. The “change of lipid-protein interaction” value in experiment [3] and in experiment [4] was “increased interactions” each time.
With ceramide, the lipid-protein interaction entry in experiment [5] (setting [13]) and in [6] (setting [13]) was “not” throughout.
As for lyso-phosphatidylcholine, the lipid-protein interaction result in experiment [5] (setting [13]) and in experiment [6] (setting [13]) was “not seen” each time.
With “phosphatidylinositol [PI, reference compound]”, the “binding to PC:PL liposomes” value in [11], in experiment [9] (setting [17]) and in experiment [10] (setting [17]) was “not” each time. In experiment [12], this compound had a 50% effective concentration (EC50) of 12 µM.
